Each block holds one compound with its values, some of them ahead of it.
Tests used:
Assay type in all cases: physicochemical
[1] = Solubility in coating solvent
[2] = Spin coating on fused silica support: film quality and film thickness from transmission and reflection spectra; details: for kind of film obtained by spin coating: 1-2 parts of solid per 100 in TFP or THF; for film thickness: spin coated from 1 part of solid to 99 parts of TFP, before vacuum
Procedure: A 1/1 mixture (by mass) of substances of the following formulae was dissolved in tetrafluoropropanol (TFP) in a mass ratio of 2 parts of solid to 98 parts of TFP. […] Evaluation of the transmission and reflection spectra indicated a film thickness of 165 nm. [drawing 62]
(§1) Determination of the complex index of refraction and the thickness of the layer of the organic substances by means of transmission and reflection spectra:
(§2) The transmission and reflection spectra of the layer systems film/fused silica or SiN/film/fused silica or SiN/fused silica were determined with perpendicular incidence of a parallel beam of light in a wavelength range of from 200 nm to 1 700 nm. […] The reflected light was detected at an angle of 172° relative to the direction of incidence. Two different thicknesses of the organic film were in each case produced by spin coating. The thickness of the layer was adjusted by means of the solution concentration. The thicknesses were in the range from 50 nm to 500 nm. To evaluate the transmission and reflection spectra, the known Fresnel formulae were employed and the interferences caused by multiple reflection in the layer system were taken into account. A simultaneous least squares fit of the measured transmission and reflection spectra to the calculated spectra of the two layer systems of differing thickness enabled the layer thicknesses and the complex index of refraction of the organic substance to be determined at each wavelength. For this purpose, the index of refraction of the fused silica support has to be known. The index of refraction curve of the fused silica substrate in this spectral range was determined independently on an uncoated substrate.

[3] = Vacuum treatment of the spin-coated film (simulated sputtering conditions), layer thickness afterwards; details: vacuum ~10^-6 mbar, 1 hour, room temperature
Procedure: This film was subjected to a vacuum (pressure ˜10^−6 mbar) for 1 hour at room temperature to simulate the conditions when applying metallic or dielectric layers by sputtering during the production of optical data carriers.
as §1, §2

[4] = SiN vapour deposition on the organic film, apparent thickness of the organic film
Procedure: A layer of SiN was subsequently applied by vapour deposition on top of the layer which had been pretreated in the above-described manner. Vapour deposition was carried out by electric heating of Si3N4 in a molybdenum boat under reduced pressure. The pressure during the vapour deposition process was ˜10^−4 mbar, and the deposition rate was ˜4-5 Angström per second. To determine the complex index of refraction of the deposited SiN layer, control experiments were carried out on plain fused silica plates. The thickness of the SiN layer was determined by means of a profiler (Tencor Alpha Step 500 Surface Profiler). In turn, evaluation of the transmission and reflection spectra of the layer system taking into account the complex index of refraction and the thickness of the SiN layer enabled the apparent thickness of the organic film to be determined. It was 94 nm. […]
The transmission and reflection spectra of the layer systems film/fused silica or SiN/film/fused silica or SiN/fused silica were determined with perpendicular incidence of a parallel beam of light in a wavelength range of from 200 nm to 1 700 nm. […] The reflected light was detected at an angle of 172° relative to the direction of incidence. […] The index of refraction curve of the fused silica substrate in this spectral range was determined independently on an uncoated substrate.

solubility ([1]; in TFP (tetrafluoropropanol)): 1%
Structure (SMILES): CN(CCOC(=O)CCC(=O)OCCN(C)c1ccc(C(C#N)=C(C#N)C#N)cc1)c1ccc(C(C#N)=C(C#N)C#N)cc1 [Example 5]

solubility ([1]; in diacetone alcohol): 2%
Structure (SMILES): N#C/C(=C\c1cccn1CCCn1cccc1/C=C(\C#N)c1ccccc1)c1ccccc1 [Example 9]

solubility ([1]; in TFP (tetrafluoropropanol)): 2%
Structure (SMILES): CC1(C)CC(=O)C(=Cc2ccc(N3CCN(c4ccc(C=C5C(=O)CC(C)(C)CC5=O)o4)CC3)o2)C(=O)C1 [Example 10]

The remaining lines, values behind:

Structure (SMILES): CCN(CC)c1ccc(/C=C/c2cc[n+](Cc3ccccc3C[n+]3ccc(/C=C/c4ccc(N(CC)CC)cc4)cc3)cc2)cc1 [Example 12]
solubility ([1]; in TFP (tetrafluoropropanol)): 2%

Structure (SMILES): CN(CCC#N)c1ccc(/C=C/C2=[N+](CCCC[N+]3=C(/C=C/c4ccc(N(C)CCC#N)cc4)C(C)(C)c4ccccc43)c3ccccc3C2(C)C)cc1 [Example 13]
solubility ([1]; in TFP (tetrafluoropropanol)): 2%

Structure (SMILES): COc1cc2c(cc1OC)C(C)(C)C/C2=C(/C#N)C(=O)OCCOC(=O)/C(C#N)=C1\CC(C)(C)c2cc(OC)c(OC)cc21 [Example II]
kind of film obtained by spin coating [2]: transparent film | film thickness [2]: 85 nm | retention of the substance after vacuum treatment [3]: fully retained | total thickness d of the layer after vacuum treatment [3]: 85 nm

Structure (SMILES): CCCOC(=O)/C(C#N)=C/c1ccc(C)o1 [Example IV, reference compound]
kind of film obtained by spin coating [2]: crystalline film

Structure (SMILES): Cc1ccc(/C=C(\C#N)C(=O)OCC(C)(COC(=O)/C(C#N)=C/c2ccc(C)o2)COC(=O)/C(C#N)=C/c2ccc(C)o2)o1 [Example V]
kind of film obtained by spin coating [2]: transparent film | film thickness [2]: 153 nm | retention of the substance after vacuum treatment [3]: virtually fully retained | total thickness d of the layer after vacuum treatment [3]: 143 nm | change of the layer by the SiN vapour deposition process ([4]; SiN deposited at ~10^-4 mbar on vacuum-pretreated layer): the layer has not been changed | apparent thickness of the organic film after SiN vapour deposition ([4]; SiN deposited at ~10^-4 mbar, ~4-5 Angström per second, on vacuum-pretreated layer): 160 nm
